{
  "source": "patent US20020028851A1",
  "about": "“Guanylhydrazones and their use to treat inflammatory conditions” (priority 1994, published 2002)",
  "key": {"[1]": {"tested_on": "RAW 264.7 cells", "test": "Whole cell inhibition assay for urea output", "assay_type": "cell-based, murine", "conditions": "for urea % suppression of induced production: γIFN+LPS, 18 hours", "protocol": "RAW 264.7 cells are plated in microculture wells at 1×10^6/ml in RPMI 1640 with 10% FBS and otherwise standard culture conditions and allowed to adhere for 5 hours. They are then activated with 25 U/ml γIFN and 0.1 μg/ml LPS in the presence of test inhibitors. The urea concentration present in the supernatant media, after 18 hours of culture, is determined by a colorimetric blood urea nitrogen diacetylmonoxime assay performed on an aliquot of the culture supernatant (Sigma Chem. Co., St. Louis, Mo.) and inhibition is expressed as the percentage urea compared to that of a parallel control culture treated identically except that the concentration of added inhibitor is zero.\nVarious concentrations of the test compounds are included in the media of the stimulated RAW 264.7 cells in culture. The concentration of urea and/or nitrite after 18 hours of activated culture is determined and compared to the uninhibited control value obtained from at least one parallel culture. The fractional reduction is calculated for each concentration of inhibitor and the IC50 (concentration giving 50% reduction) is interpolated. Compounds were dissolved in media with mild heat (60° C.). Those with limited solubility were dissolved in base. The concentration of stock solutions of those compounds which were not completely soluble was determined by OD280."}, "[2]": {"tested_on": "RAW 264.7 cells", "test": "Whole cell inhibition assay for arginine uptake", "assay_type": "cell-based, murine", "conditions": "for arginine transport % suppression of induced peak: γIFN+LPS, 8 hours", "protocol": "In the embodiment described in the working example herein, a test population of cells was cultured for about 3 hours so that the cells became firmly adherent. Various concentrations of the potential inhibitors were then added to parallel cultures. One hour later the macrophage stimulators, e.g. including, but not limited to LPS and γIFN, were added. Eighteen hours later the cells were washed in a warm balanced salt solution supplemented with glucose. Carrier-free radiolabelled arginine was added; after 5 minutes, active uptake of arginine was stopped by washing the cell three times with buffer, chilled to 0° C., containing 10 mM unlabeled arginine to displace any externally bound label. The contents of the washed cells are solubilized in 100 μl of formic acid and counted by standard techniques.\nRAW 264.7 cells are plated in standard 96-well microculture plates at a concentration of 10^5/well and allowed to adhere for from 2 hours to overnight. The medium is then replaced with medium containing the compound to be tested. One hour later, the medium is supplemented so as to contain 25 U/ml γIFN and 0.1 μg/ml LPS and the cultures incubated a further. The cells are then rinsed twice in HEPES- buffered Krebs salt solution with 0.1% glucose. Carrier-free tetra-^3H-arginine is added to each well (2.5 μCi/well with specific activity of […]) and the active uptake of arginine is allowed to continue for a 5 minute period after which the cells are rapidly cooled to 0° C. by lavage with iced saline containing 10 mM unlabeled arginine to displace any externally bound label. The contents of the washed cells are solubilized in 100 Al of formic acid and counted by standard techniques. In subsequent experiments to determine the acitivity of the inhibitors, incubations were performed for 8 hours.\nThis section describes experiments that measure the concentration of Compound No. 14 needed to inhibit arginine uptake and NO output. The techniques employed were described in section 7.1 supra."}, "[3]": {"tested_on": "C3H/HeN mice", "test": "Carrageenan-induced paw swelling", "assay_type": "in vivo", "protocol": "Paw edema was induced by injection of 50 microliters of 1% Lambda-carrageenan in HEPES 25 mM, pH 7.4, into the planter surface of the left hindpaw of C3H/HeN mice, the right paw was injected with 50 microliters of HEPES alone. The animals were divided into two groups: controls (n=3) received vehicle only, i.p. 1.5 hour before paw injection; the experimental group […] was treated with Compound No. 14, 5 mg/Kg, i.p. 1.5 hour before paw injection. Three hours after paw injection, paw thickness was measured using a caliper, and the data expressed as change of carrageenan paw vs HEPES paw thickness.\nThe results are summarized in Table V which contains the carrageenan-induced increase in paw thickness in mm of three control and three Compound No. 14 treated mice. The inhibition can also be reported as percent inhibition of swelling as defined by the standard formula: Percent inhibition=(1−(treated/control))×100. Calculation of this parameter for treated animals in which Compound No. 14 suppressed swelling yields a 70% inhibition."}, "[4]": {"tested_on": "BALB/c mice", "test": "LPS-induced lethality (endotoxic shock)", "assay_type": "in vivo", "protocol": "Experiments were undertaken to evaluate the effects of Compound No. 14 in preventing the lethal toxicity of lipopolysaccharide (LPS). LPS was administered to induce 50% lethality within 72 hr in BALB/c mice (FIG. 10). BALB/c mice (19-21 g) were given LPS (E. coli 0111:B4; Sigma) in a dose of 13.75 mg/Kg by intraperitoneal injection (0.2 ml/mouse). Stock LPS solutions (10 mg/ml) were sonicated initially for 20 min, diluted in LPS-free water (1.375 mg/ml), then sonicated again for 10 min immediately prior to injection. Compound No. 14 (1 mg/Kg, i.p.) was administered 1.5 hr before LPS. Compound No. 14 injectate was free of LPS as measured by quantitative chromogenic Limulus amebocyte lysate test (BioWhittaker, Walkersville, Md.). Data points are from two groups consisting of 10 mice per group.\nData were subjected to statistical analysis using the z test for independent proportions. The difference bewteen control and Compound No. 14 is significant (one-tailed p value<0.05; z=1.95)."}, "[5]": {"tested_on": "TNF", "test": "Cytokine production by LPS/γIFN-stimulated human PBMC: TNF", "assay_type": "cell-based", "conditions": "γIFN+LPS, 18 hr", "text": "(§1) Similar results concerning a variety of cytokines in addition to TNF, e.g., IL-6 and Macrophage Inflammatory Proteins-1α and -1β (MIP-1α and MIP-1β) were obtained using human peripheral blood as a source of monocytes. Human peripheral blood mononuclear cells (PBMC) were isolated using “FICOLL®”-based methods and plated in standard 6-well culture plates at a concentration of 10^6/well and allowed to adhere for from 2 hr to overnight whereupon non-adherent cells were washed out and the medium was then replaced with medium containing the compound to be tested. One hour later, the medium was supplemented so as to contain 25 U/ml γIFN and 0.1 μg/ml LPS and the cultures incubated a further 18 hr. The medium was then collected, and cell debris removed by centrifugation. This conditioned supernatant was then assayed for the presence of cytokines using the standard methodologies of L929 cell cytotoxicity bioassay and immunoassay (ELISA)."}, "[6]": {"tested_on": "IL-6", "test": "Cytokine production by LPS/γIFN-stimulated human PBMC: IL-6", "assay_type": "cell-based", "conditions": "γIFN+LPS, 18 hr", "text": "as §1"}, "[7]": {"tested_on": "MIP-1α", "test": "Cytokine production by LPS/γIFN-stimulated human PBMC: MIP-1α", "assay_type": "cell-based", "conditions": "γIFN+LPS, 18 hr", "text": "as §1"}},
  "note": "Several values for one entry are separate records, joined by “and”; a condition that tells them apart may be missing. Equal values may be shown once.",
  "data": [
    {"compound": "CC(=NNC(=N)N)c1cc(NC(=O)CCCCCCCCC(=O)Nc2cc(C(C)=NNC(=N)N)cc(C(C)=NNC(=N)N)c2)cc(C(C)=NNC(=N)N)c1.Cl.Cl.Cl.Cl", "note": "[Compound 14, N,N′-bis(3,5-diacetyl-phenyl)decanediamide tetrakis(amidinohydrazone) tetrahydrochloride]", "values": [
      {"measurement": "urea % suppression of induced production", "setting": "[1]; dose 2 μM", "result": 68, "unit": "%"},
      {"measurement": "urea % suppression of induced production", "setting": "[1]; dose 10 μM", "result": 78, "unit": "%"},
      {"measurement": "urea % suppression of induced production", "setting": "[1]; dose 50 μM", "result": 100, "unit": "%"},
      {"measurement": "urea % suppression of induced production", "setting": "[1]; dose 200 μM", "result": 100, "unit": "%"},
      {"measurement": "IC50", "setting": "[1]; interpolated, γIFN+LPS-activated RAW 264.7, 18 hours, read-out: I.C.50 (in parenthesis), inhibition of urea production", "result": 1, "unit": "µM"},
      {"measurement": "arginine transport % suppression of induced peak", "setting": "[2]; dose 2 μM", "result": 9, "unit": "%"},
      {"measurement": "arginine transport % suppression of induced peak", "setting": "[2]; dose 10 μM", "result": 19, "unit": "%"},
      {"measurement": "arginine transport % suppression of induced peak", "setting": "[2]; dose 50 μM", "result": 86, "unit": "%"},
      {"measurement": "arginine transport % suppression of induced peak", "setting": "[2]; dose 200 μM", "result": 100, "unit": "%"},
      {"measurement": "IC50", "setting": "[2]; exposed prior to stimulation, uptake measured at 8 hours, read-out: I.C.50 for arginine uptake", "result": 7.5, "unit": "µM"},
      {"measurement": "CHANGE IN PAW THICKNESS (carrageenan paw vs HEPES paw)", "setting": "[3]; 5 mg/Kg i.p. 1.5 hour before paw injection, three hours after, individual mice", "result": "0.54 mm and 0.41 mm and 0.4 mm"},
      {"measurement": "Percent inhibition of swelling", "setting": "[3]; 5 mg/Kg i.p., (1−(treated/control))×100", "result": 70, "unit": "%"},
      {"measurement": "Diarrhea after LPS", "setting": "[4]; 1 mg/Kg i.p. 1.5 hr before LPS", "result": "not suppressed"},
      {"measurement": "visible signs of LPS toxicity", "setting": "[4]; 1 mg/Kg i.p. 1.5 hr before LPS", "result": "markedly suppressed"},
      {"measurement": "LPS-induced lethality", "setting": "[4]; 1 mg/Kg i.p. 1.5 hr before LPS 13.75 mg/Kg i.p., 72 hr, p<0.05", "result": "reduced lethality"},
      {"measurement": "gross signs of systemic toxicity", "setting": "[4]; animals receiving compound alone, 1 mg/Kg i.p.", "result": "no gross signs of systemic toxicity"},
      {"measurement": "concentration that effectively inhibited production of TNF", "setting": "[5]", "result": "10 to 20", "unit": "µM"},
      {"measurement": "concentration that effectively inhibited production of IL-6", "setting": "[6]", "result": "10 to 20", "unit": "µM"},
      {"measurement": "concentration that effectively inhibited production of MIP-1α", "setting": "[7]", "result": "10 to 20", "unit": "µM"}
    ]}
  ]
}
